# Columns and labels:
# U87 [1] = experiment: Seahorse XFe96 metabolic assay (OCR/ECAR), in-situ injection of 5-ALA; type: cell-based, human; settings: U87 cells; 5-ALA 500 - 1000 µM injected in situ; Figure 1
# Method: (§1) The cells used in the present examples were human glioblastoma multiforme (GBM) cell lines, purchased from the American Type Culture Collection (ATCC, Manassas, VA, USA). These cell lines were LN18 (ATCC®, CRL-2610™), U87 (ATCC®, HTB-14™), T98G (ATCC®, CRL-1690™) and M059K (ATCC®, CRL-2365™). All cells were grown in RPMI 1640 without phenol red, supplemented with 10% fetal bovine serum (FBS) and penicillin/streptomycin at 37 °C in a 5% CO2 and 95% humidified atmosphere.
# (§2) In order to study the changes in cell metabolism in GBM cells following the in-situ addition of 5-ALA, the Seahorse XFe96 analyzer (Agilent Technologies) was employed. Briefly, 4×10^4 cells were seeded in a seahorse plate and incubated overnight in complete RPMI 1640 medium at 37 °C, and a 5% CO2 humidified atmosphere. One hour prior to the experiments, the cells had their media changed to unbuffered XF RPMI pH 7.4 medium supplemented with 10 mM glucose, 2 mM L-glutamine, and 2 mM sodium pyruvate and were incubated for one hour at 37 °C, 0% CO2 atmosphere. The basal oxygen consumption and media acidification rates (OCR and ECAR respectively) of the cell groups were measured in four cycles. After those four cycles injections of i) 5-ALA (500 - 1000 µM), ii) Oligomycin A (OLIGO) 1 µM, iii) Carbonyl cyanide 4-(trifluoromethoxy)phenylhydrazone (FCCP) 1 µM and iv) Antimycin A (ANTI A) and Rotenone (ROT) 2 µM each were sequentially performed for 3 measurement cycles each.
# MO59K = experiment: as above; type: cell-based, human; settings: MO59K cells; 5-ALA 500 - 1000 µM injected in situ; Figure 1
# Method: as §1, §2
# T98G [2] = experiment: as above; type: cell-based, human; settings: T98G cells; 5-ALA 500 - 1000 µM injected in situ; Figure 1
# Method: as §1, §2
# LN18 [3] = experiment: as above; type: cell-based, human; settings: LN18 cells; 5-ALA 500 - 1000 µM injected in situ; Figure 1
# Method: as §1, §2
# [4] = system: LDH present in cell lysates, T98G; experiment: Spectrophotometric LDH kinetics (NADH absorbance at 340 nm), cell lysates; type: biochemical, human; settings: 0.75 mM 5-ALA, no inhibitor: -1.20
# Method: as §1
# (§3) A. enzyme solutions. 0.5 mL of an aqueous LDH solution was mixed with 0.5 mL reaction buffer to start the LDH reduction of pyruvate. The final LDH concentration was always 5 µM. […] The final concentration of 5-ALA in the total volume of the reaction mix (1 mL) was 5 mM for 5-ALA. In the enzymatic assays LDH refers to the LDH-A isoform.
# (§4) In the second phase of the experiments, the enzymatic activity of LDH present in cell lysates was investigated.
# (§5) Cell lysates were obtained from LN18, T98G, U87 and M059K GBM cells. In brief, cells from confluent T175 flasks were harvested with the use of TrypLE™ Express Enzyme (Gibco, REF# 12604021) and resuspended in ddH2O with Triton™ X-100 (0,25%). The cell lysate measurements were performed according to the enzymatic solution measurents, however in this case, cell lysates equivalent to […] were each time added to the H2O half of the reaction mix. […]
# [5] = system: LDH present in cell lysates, M059K; experiment: as above; type: biochemical, human; settings: 0.75 mM 5-ALA, no inhibitor: -1.47
# Method: as §1, §3, §4, §5
# LDH-A isoform = LDH-A isoform (Homo sapiens, UniProt P00338); experiment: Spectrophotometric LDH kinetics (NADH absorbance at 340 nm), enzyme solution
# [6] = system: LDH present in cell lysates, U87; experiment: Spectrophotometric LDH kinetics (NADH absorbance at 340 nm), cell lysates; type: biochemical, human; settings: 0.75 mM 5-ALA, no inhibitor: -1.43
# Method: as §1
# (§6) A. enzyme solutions. 0.5 mL of an aqueous LDH solution was mixed with 0.5 mL reaction buffer to start the LDH reduction of pyruvate. The final LDH concentration was always 5 µM.
# [7] = system: LDH present in cell lysates, Ln18; experiment: as above; type: biochemical, human; settings: 0.75 mM 5-ALA, no inhibitor: -1.48
# Method: as §1, §6
# U87 [8] = experiment: Seahorse XF Real-Time ATP Rate Assay; type: cell-based, human; settings: U87 cells, 1000µM of 5-ALA, change versus control
# Method: as §1, §2
# (§7) The ATP contributions of mitochondrial respiration and cell glycolysis in U87, T98G, M059K and LN18 human GBM cells in the presence or absence of 5-ALA, were deconvoluted quantified by use of the Seahorse XF Real-Time ATP Rate Assay Kit. In brief the same protocol as in Example 1 was followed without the injection of FCCP and with only three basal measurement cycles, while the corresponding final concentrations of OLIGO and ROT/ANTI A were this time 1.5 and 0.5 µM. The ATP rates were determined with use of the Agilent Seahorse XF Real-Time ATP Rate Assay Report Generator.
# (§8) The wells in the bottom row of the seahorse plates were in all cases left devoid of cells and were used as blank values. These were automatically subtracted by the Seahorse analyser software.
# (§9) The changes in ATP production from either respiration or glycolysis were evaluated upon addition of 1000µM of 5-ALA.
# T98G [9] = experiment: Seahorse XF Real-Time ATP Rate Assay; type: cell-based, human; settings: T98G cells; 1000µM of 5-ALA; change versus control
# Method: as §1, §2, §7, §8, §9
# LN18 [10] = experiment: Seahorse XF Real-Time ATP Rate Assay; type: cell-based, human; settings: LN18 cells; 1000µM of 5-ALA; change versus control
# Method: as §1, §2, §7, §8, §9
# M059K = experiment: Seahorse XF Real-Time ATP Rate Assay; type: cell-based, human; settings: M059K cells; 1000µM of 5-ALA; change versus control
# Method: as §1, §2, §7, §8, §9
# U87 [11] = experiment: MTT cell viability assay; type: cell-based, human; settings: U87 cells
# Method: as §1
# (§10) The cells were incubated with 5, 10 and 20 mM 5-ALA for three days and each day the effect of 5-ALA on their viability was assessed by standard MTT assays at 24, 48 and 72h following incubation. The results are shown in Figure 5 (Error bars represent one SD).
# T98G [12] = experiment: MTT cell viability assay; type: cell-based, human; settings: T98G cells; 10mM 5-ALA; after 72h incubation
# Method: as §1, §10
# LN18 [13] = experiment: MTT cell viability assay; type: cell-based, human; settings: LN18 cells
# Method: as §1, §10
# [14] = 10mM 5-ALA, all time points (24, 48 and 72h)
# [15] = 20 mM 5-ALA, compared with the 90-98% reduction at 10mM
smiles,measurement,setting,value
"NCC(=O)CCC(=O)O [5-ALA, 5-Aminolevulinic acid]",glycolytic activity,U87 [1],drop in the glycolytic activity of those cell lines which was dose dependent
same,glycolytic activity,MO59K,drop in the glycolytic activity of those cell lines which was dose dependent
same,glycolytic activity,T98G [2],drop in the glycolytic activity of those cell lines which was dose dependent
same,glycolytic activity,LN18 [3],drop in the glycolytic activity of those cell lines which was dose dependent
same,initial slope of NADH absorbance curve (LDH Vmax for the cell lysate volume studied),[4],-0.57
same,initial slope of NADH absorbance curve (LDH Vmax for the cell lysate volume studied),[5],-0.53
same,initial slope of NADH absorbance curve (corresponds to Vmax of the enzyme),"LDH-A isoform; Enzyme solution, 5 mM 5-ALA, first 5 data points (8 sec), pH 6.5, no inhibitor: -2.28",-0.51
same,activity at 5000 µM,LDH-A isoform; read-out: enzyme function as % of its Vmax,~22%
same,initial slope of NADH absorbance curve (LDH Vmax for the cell lysate volume studied),[6],-0.32
same,initial slope of NADH absorbance curve (LDH Vmax for the cell lysate volume studied),[7],-0.47
same,reduction in glycolytic ATP production,U87 [8],~-200 pmol/min
same,increase in mitochondrial respiration-derived ATP,U87 [8]; marginally significant,~ 100 pmole/min
same,reduction in glycolytic ATP production,T98G [9],~-200 pmol/min
same,reduction in glycolytic ATP production,LN18 [10],~-140 pmol/min
same,reduction in glycolytic ATP production,M059K,~ -250 pmole/min
same,reduction in cell viability,U87 [11]; [14],90-98%
same,reduction in cell viability,U87 [11]; [15],"in general, maintained"
same,lethality level reached (cell viability),T98G [12],LD40
same,reduction in cell viability,LN18 [13]; [14],90-98%
same,reduction in cell viability,LN18 [13]; [15],"in general, maintained"

# From patent publication EP4306108A1, “5-AMINOLEVULINIC ACID, OR AN ESTER THEREOF FOR USE IN TREATMENT OF CANCER BASED ON THE INHIBITION OF LACTATE DEHYDROGENASE” (Theodossiou, Theodossis, priority 2022, dated 2024)
